Experimental data: publication PMC11347369, “Synthesis and antibacterial action of 3’,6’-disubstituted spectinomycins” (The Journal of Antibiotics, 2024)
pIC50: −log10 of the molar value. ≈ marks a conversion by molar mass, not a printed value.

What was measured:
S. pneumoniae R6 = assay: MIC broth microdilution, S. pneumoniae; assay type: cell-based; settings: Streptococcus pneumoniae, read-out: Minimum Inhibitory Concentration
E. faecalis ATCC 29212 = assay: MIC broth microdilution, E. faecalis; assay type: cell-based; settings: Enterococcus faecalis, ATCC29212; E. faecalis ATCC 29212; read-out: Minimum Inhibitory Concentration
E. faecium ATCC 19434 = assay: MIC broth microdilution, E. faecium; assay type: cell-based; settings: Enterococcus faecium, ATCC19434; E. faecium ATCC 19434; read-out: Minimum Inhibitory Concentration
[1] = system: M. tuberculosis H37Rv ∆1258c; assay: microbe, parasite or virus in culture; assay type: cell-based; settings: Mycobacterium tuberculosis, 168 h
M. abscessus ATCC 19977 [2] = assay: microbe, parasite or virus in culture; settings: Mycobacteroides abscessus, ATCC19977, 72 h, read-out: WT MIC
[3] = molecular target: T1, M. smegmatis ribosomes (strain SZ380) (Mycolicibacterium smegmatis, UniProt A0QSG6); assay: Mycobacterial cell-free translation inhibition assay; assay type: biochemical, Mycobacterium smegmatis
T1 construct: S30 extracts were prepared by addition of dithiothreitol (DTT) to 1 mM and centrifugation; endogenous in cells; host or cells: M. smegmatis strain SZ380, S30 cell extract
Protocol: Mycobacterial cell-free translation inhibition assays were performed as described previously. In brief, M. smegmatis strain SZ380 bacterial cells were disrupted and emulsified with a microfluidizer processor (Microfluidics, Westwood, MA, USA) at 25,000 lb/in^2. S30 extracts were prepared by addition of dithiothreitol (DTT) to 1 mM and centrifugation at 30,000 × g at 4 °C. Translation reaction mixtures containing either test article or DMSO vehicle control and 4 μl of the S30 extract, 0.2 mM amino acid mix, 6 μg tRNA (Sigma), 0.4 μg hFluc mRNA, 0.3 μl protease inhibitor (complete, EDTA-free, Roche), 12 U RNAse inhibitor (Ribolock, Thermo Scientific), 6 μl S30 premix without amino acids (Promega), plus water to a final reaction volume of 15 μl were incubated for 1 h at 37 °C. The reaction was stopped on ice before adding 75 μl of luciferase assay reagent (Promega) and recording of luminescence. Regression analysis and IC50 calculations were performed using GraphPad Prism version 9.3.1 by using the equation [log(inhibitor) vs. response–Variable slope (four parameters)] with the fitting method: least squares (ordinary) fit. Y = Bottom + (Top-Bottom)/(1 + 10^((X-LogIC50))).

A. baumannii ATCC 19606 = assay: MIC broth microdilution, A. baumannii; assay type: cell-based, Acinetobacter baumannii; settings: A. baumannii ATCC 19606
S. aureus USA300 = assay: MIC broth microdilution, S. aureus; assay type: cell-based; settings: Staphylococcus aureus; S. aureus USA300; read-out: Minimum Inhibitory Concentration
[4] = system: K. pneumoniae ATCC 700603; assay: MIC broth microdilution, K. pneumoniae; assay type: cell-based, Klebsiella pneumoniae; settings: K. pneumoniae ATCC 700603
[5] = system: S. epidermidis ATCC 14990; assay: MIC broth microdilution, S. epidermidis; assay type: cell-based; settings: Staphylococcus epidermidis, ATCC14990; S. epidermidis ATCC 14990; read-out: Minimum Inhibitory Concentration
S. pyogenes ATCC 700294 = assay: MIC broth microdilution, S. pyogenes; assay type: cell-based; settings: Streptococcus pyogenes, ATCC700294; S. pyogenes ATCC 700294; read-out: Minimum Inhibitory Concentration
[6] = system: M. smegmatis strain MC^2 155; assay: MIC broth microdilution, M. smegmatis; assay type: cell-based, Mycobacterium smegmatis; settings: Mycolicibacterium smegmatis, MC^2155, 72 h; M. smegmatis strain MC^2 155; 3 days; read-out: WT MIC
E. coli K12 [7] = system: E. coli K12
M. tuberculosis H37Rv [8] = assay: microbe, parasite or virus in culture; settings: Mycobacterium tuberculosis, 168 h, read-out: WT MIC
M. abscessus ATCC 19977 [9] = system: M. abscessus ATCC 19977
E. coli K12 [10] = assay: microbe, parasite or virus in culture; settings: Escherichia coli, K12, read-out: Minimum Inhibitory Concentration
[11] = system: M. abscessus ATCC 19977 ∆2780c; assay: microbe, parasite or virus in culture; assay type: cell-based, Mycobacterium abscessus; settings: Mycobacteroides abscessus, ATCC19977, 72 h, read-out: ∆2780c MIC
M. tuberculosis H37Rv [12] = system: M. tuberculosis H37Rv
E. coli K12 ∆tolC = assay: microbe, parasite or virus in culture; assay type: cell-based; settings: Escherichia coli, read-out: Minimum Inhibitory Concentration
Gram-positive species = assay: MIC, Gram-positive panel compared to SPC; assay type: cell-based; settings: against all Gram-positive species
P. aeruginosa ATCC 15692 = assay: MIC broth microdilution, P. aeruginosa; assay type: cell-based, Pseudomonas aeruginosa; settings: P. aeruginosa ATCC 15692

T1 sequence (A0QSG6 whole entry): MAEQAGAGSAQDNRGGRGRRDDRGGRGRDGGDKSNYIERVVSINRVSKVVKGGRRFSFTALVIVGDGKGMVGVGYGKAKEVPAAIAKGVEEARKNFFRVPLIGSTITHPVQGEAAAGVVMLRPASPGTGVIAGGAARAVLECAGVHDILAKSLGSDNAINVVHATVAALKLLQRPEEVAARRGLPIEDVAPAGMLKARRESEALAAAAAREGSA

Q: What does the source list for CCCC[C@@H]1CC(=O)[C@]2(O)O[C@@H]3[C@@H](NC)[C@@H](O)[C@@H](NC)[C@H](O)[C@H]3O[C@@H]2O1 [TroSPC (2), trospectomycin, reference compound]?
A: MIC (S. pneumoniae R6): 4 mg/L (≈ 10.7 µM); MIC (E. faecalis ATCC 29212): 64 mg/L (≈ 171 µM); MIC (E. faecium ATCC 19434): 64 mg/L (≈ 171 µM); MIC [1]: 2 mg/L (≈ 5.34 µM); MIC (M. abscessus ATCC 19977 [2]): 64 mg/L (≈ 171 µM); pIC50 [3]: 6.29; Minimum Inhibitory Concentration (A. baumannii ATCC 19606): >64 µg/mL; MIC (A. baumannii ATCC 19606; Acinetobacter baumannii, ATCC19606, read-out: Minimum Inhibitory Concentration): > 64 mg/L; MIC (S. aureus USA300): 64 mg/L (≈ 171 µM); Minimum Inhibitory Concentration [4]: >64 µg/mL; MIC ([4]; Klebsiella pneumoniae, ATCC700603, read-out: Minimum Inhibitory Concentration): > 64 mg/L; MIC [5]: 32 mg/L (≈ 85.5 µM); MIC (S. pyogenes ATCC 700294): 4 to 8 mg/L (≈ 10.7 to 21.4 µM); MIC [6]: 32 mg/L (≈ 85.5 µM); E. coli Efflux Ratio (E. coli K12 [7]): >4; MIC (M. tuberculosis H37Rv [8]): 32 mg/L (≈ 85.5 µM); Efflux Ratio (M. abscessus ATCC 19977 [9]): 4; MIC (E. coli K12 [10]): > 64 mg/L; MIC [11]: 16 mg/L (≈ 42.7 µM); Efflux Ratio (M. tuberculosis H37Rv [12]): 16; MIC (E. coli K12 ∆tolC): 16 mg/L (≈ 42.7 µM); increase in activity compared to SPC (Gram-positive species): > 4 fold; Minimum Inhibitory Concentration (P. aeruginosa ATCC 15692): >64 µg/mL; MIC (P. aeruginosa ATCC 15692; Pseudomonas aeruginosa, ATCC15692, read-out: Minimum Inhibitory Concentration): > 64 mg/L
